The test system of one series is SARS-CoV-2. Nature of the series: microbe, parasite or virus in culture. As to conditions: Severe acute respiratory syndrome coronavirus 2, 48 h; read-out: SARS-CoV-2 (2-day) EC50. Type of series: cell-based.
A short description of series [1]: A549 cytotoxicity analysis (CellTiter-Glo). It is filed as cell-based. To be noted: human. On the procedure:
The cytotoxicity of compounds was determined in A549 cells in the following manner. Compounds (200 nL) were spotted onto 384-well Grenier plates prior to seeding 5000 A549 cells/well in a volume of 40 μL culture medium. The plates were incubated at 37° C. for 48 hours with 5% CO2. On day 2, 40 μL of CellTiter-Glo (Promega) was added and mixed 5 times. Plates were read for luminescence on an Envision (PerkinElmer) and the CC50 (compound concentration for reducing 50% of luminescence signal as a measure of cell viability) were calculated using a nonlinear regression model (four parameters).
(ATP-based viability assays read luminescence as a measure of living cells.)

The test system of a further series is 2019-nCoV. Nature of the series: Intravenous Compound 32 against 2019-nCoV in rhesus monkeys. Type of series: in vivo. To be noted: 10 mg/kg IV once daily, vs vehicle.
Where [2] appears, read: A549 cells, 48 hours, CellTiter-Glo, read-out: A549 Cytotoxicity (2-day) CC50.

Like-named read-outs stand apart in the source and are kept apart here.

For `N#C[C@@]1(c2ccc3c(N)ncnn23)O[C@H](CO)[C@@H](O)[C@H]1O`, the EC50 (usually the concentration needed to bring the measured effect to its halfway point) with SARS-CoV-2 came to 869 ± 289 nM. The cytotoxic concentration (CC50) (in general, the concentration at which the toxic effect on the cells reaches its halfway point) at 48 h in series [1] is more than 50000 nM.
Turning to `CCC(CC)COC(=O)[C@H](C)N[P@](=O)(OC[C@H]1O[C@@](C#N)(c2ccc3c(N)ncnn23)[C@H](O)[C@@H]1O)Oc1ccccc1` [drawing 141], the half-maximal effective concentration (EC50) in the series on SARS-CoV-2 was found to be 135 ± 20 nM. In addition, in series [1] (setting [2]), the CC50 at 48 h is more than 25200 nM.
Taken in the same sequence, the figures for `CCC(CC)COC(=O)[C@H](C)N[P@@](=O)(OC[C@H]1O[C@@](C#N)(c2ccc3c(N)ncnn23)[C@H](O)[C@@H]1O)Oc1ccccc1` were 272 ± 75 nM and 17700 nM.
For the compound `CCC(CC)COC(=O)[C@H](C)N[P@](=O)(OC[C@H]1O[C@@](C#N)(c2ccc3c(N)ncnn23)[C@H](O)[C@@H]1O)Oc1ccccc1` [Compound 32, (S)-2-ethylbutyl 2-(((S)-(((2R,3S,4R,5R)-5-(4-aminopyrrolo[2,1-f][1,2,4]triazin-7-yl)-5-cyano-3,4-dihydroxytetrahydrofuran-2-yl)methoxy)(phenoxy)phosphoryl)amino)propanoate], in the series with 2019-nCoV, the cumulative clinical scores entry is “notably higher in vehicle-treated animals” and the disease symptoms entry is “less pronounced”.

Values taken from patent US11660307B2, “Methods for treating SARS CoV-2 infections” (Gilead Sciences, Inc., priority 2020, dated 2023).
